Results published in US20210378247A1 (priority 2018, published 2021).

Tests used:
Type in all cases: in vivo
[1] = test system: Colletotrichum sublineolum; assay: Sorghum detached leaf assay, anthracnose disease control; conditions: strains 1×10^8 CFU/mL, pyraclostrobin 10 ppm, severity assessed after 7 days
Protocol: Sorghum cultivar 12-GS9016-KS585 was grown in the greenhouse for a steady supply of leaf tissue for the bacterial strain evaluation. Fully expanded sorghum leaves from 4-6 weeks old plants were excised and cut into equal pieces, 2.5 cm wide. Colletotrichum sublineolum, (obtained from the Dr. Isakeit laboratory at Texas A&M University) was grown on 20% Oatmeal agar for 14 days. The actively growing culture was flooded with sterile distilled water, dislodging the spores. The concentration of the suspension was then adjusted to 1×10^6 spores/mL. Tween 20 was then added to the suspension to 0.05%.
Each of the bacterial strains of interest was streaked onto Luria Bertani (LB) agar petri plates. A single colony was picked and placed in 50 ml of LB liquid medium or in liquid culture (CHA medium; per L, NaCl (5 g), tryptone (10 g), nutrient broth (8 g), CaCl2 (0.14 mM), MgCl2.6H2O (0.2 mM), and MnCl2.4H2O (0.01 mM)) in a 250-ml flask. […]
Anthracnose severity was assessed on a scale of 0-4 after 7 days according to Prom, et al., 2016 (Plant Path J. 15(1): 11-16), with few modifications. […] Results (Table 4) were analyzed using analysis of variance (ANOVA) in JMP® (version 13.2.1; SAS Institute Inc., Cary, N.C.) and significant differences (P<0.05) were observed among bacterial strains.

Mycosphaerella fijiensis = assay: Grand Nain leaf piece assay, black sigatoka control; conditions: Grand Nain leaf pieces, strains 1×10^8 CFU/mL, mancozeb 10 ppm
Protocol: The susceptible musa cultivar Grand Nain was used. Plants were maintained in the greenhouse for a constant supply of disease-free leaves. The inoculum used in this evaluation was a M. fijiensis culture obtained from the International of Tropical Agriculture (IITA), Ibadan, Nigeria and was maintained on V8 Juice agar.
Smaller leaf pieces (4 cm long×3 cm wide) were cut from the excised leaf. Two leaf pieces were placed in plastic petri dishes with adaxial side on agar amended with 5 mg/liter gibberellic acid. Leaf pieces were sprayed with 120 μL of bacterial strain (1×10^8 CFU/mL of sterile distilled water) using a fingertip sprayer. Petri dishes with leaf pieces were incubated at room temperature in the dark for 24 h. Leaf pieces were then inoculated with a mycelial suspension of M. fijiensis, Mycelial fragments scraped from growing cultures were cut in smaller mycelial tips in sterile distilled (in 50 ml conical tubes) using a homogenizer (Omni International, Kennesaw, Ga.). […]
Data recorded was the most progressed stage on inoculated leaves at the time of data collection (there are six recognized stages for black sigatoka symptom development). Data was analyzed using analysis of variance (ANOVA) in PROC GLM of SAS (version 9.4; SAS Institute Inc., Cary, N.C.) and significant differences (P<0.05) were observed among treatments.

[2] = test system: Colletotrichum sublineolum; assay: Greenhouse assay, sorghum anthracnose on sorghum plants; conditions: greenhouse sorghum plants cv. Seso3; strains 5 g/L sprayed weekly for three weeks
Protocol: Sorghum plants (cv. Seso3) were planted in the greenhouse. Thirty five days post planting, the plants were treated with microbial strains (AIP029105, AIP075655 or AIP061382) at the rate of 5 g/L. Other treatments included inoculated check and a fungicide (Mancozeb). The treatments were arranged in a randomized complete block design with three replications, each consisting of three plants. The treatments were sprayed onto the plant until run off. Treatment with biocontrol was done weekly for three consecutive weeks.
One day post treatment, the plants were inoculated with a suspension of Colletotrichum sublineolum spores. The inoculum was prepared from a fungal isolate obtained from naturally infected sorghum in Eastern Uganda. The isolate was cultured on potato dextrose agar (PDA; Farm Eur. Laboratories Madrid, Spain), at 26-28° C. for two weeks to achieve sporulation. […]
Disease incidence was carried out by observing individual plants for the appearance of anthracnose symptoms, starting at 7 days post inoculation, and thereafter on a weekly basis for five weeks. Any plant showing anthracnose symptoms was recorded and contributed to the overall number of infected plants (incidence) succumbing to the disease irrespective of the severity. […] Data was analyzed using analysis of variance (ANOVA) in JMP® (version 14.0.0; SAS Institute Inc., Cary, N.C.).

Podosphaera xanthii = assay: Detached squash leaf disk assay, powdery mildew control; conditions: detached squash leaf disks, tebuconazole 10 ppm, incubated six days
Protocol: Leaf disks of healthy squash leaves were excised and cut into uniform leaf disks 35 mm in diameter using a large cork borer. An experimental unit consisted of a single leaf disk, each treated with a suspension of the selected bacterium. Treatments included AgBiome strains AIP061382, AIP075655, and AIP029105, and control treatments. Controls were non-inoculated and inoculated leaf disks, and the synthetic fungicide tebuconazole at 10 ppm as a positive control. Bacterial strains were prepared as described in Example 2. Each leaf disk was sprayed with 200 μL of the treatment (bacterial suspension or synthetic fungicide) on the adaxial surface 24 hours before inoculation with the pathogen, Podosphaera xanthii (strain obtained from Dr. McGrath laboratory, Cornell University). After treatment with the fungicide, leaf disks were incubated in the dark for 24 hours at 23° C.
Leaf disks were inoculated by spraying a 1×10^6 suspension of P. xanthii conidia on the treated leaf surface. Treatments were placed into sealed clear plastic boxes and incubated for six days at 25° C. with a relative humidity of 80% and a 12 hour photoperiod. […] The number of powdery mildew colonies were also recorded for each treatment. […] Data was analyzed in SAS JMP version 14.0.

Phytophthora infestans = conditions: late blight, tomato leaf disk; strains 1×10^8 CFU/ml, mefenoxam 5 ppm; severity assessed after 7 days
Phakopsora pachyrhizi = assay: Soybean detached leaf disk assay, soybean rust control; conditions: detached leaf disks, strains 1×10^8 CFU/mL, azoxystrobin 0.5 ppm
Protocol: The susceptible soybean cultivar Williams 82 was used. Soybean plants were planted every 2 weeks and placed inside a growth chamber (Percival Scientific, Inc., Boone, Iowa) maintained at 75% relative humidity with a cycle of 14 h of light (350 μmol m^−2 s^−1 PAR) and 10 h of darkness at 24 and 23° C., respectively, for a constant supply of 2 to 3 week-old rust-free leaves. A mixture of P. pachyrhizi urediniospores obtained from infected soybean leaves collected from Gadsden County, Fla. in 2015 and 2016 was used in this experiment. The details of maintenance and increase of P. pachyrhizi urediniospores have been described elsewhere (Twizeyimana and Hartman 2010, Plant Dis. 94:1453-1460).
Leaf disks (3.5-cm diameter each) were sprayed with 120 μL of each bacterial strain of interest (1×10^8 CFU/mL of sterile distilled water) using a fingertip sprayer (Container & Packaging Supply, Eagle, Id.) fitted to a 15 mL conical centrifuge tube (Fisher Scientific, Cat No. 14-59-53A). […]
Rust severity was scored by counting the number of sporulating uredinia in two arbitrarily selected 1-cm diameter circle of leaf tissue from an inoculated leaf disk (Table 7). Data was analyzed using analysis of variance (ANOVA) in PROC GLM of SAS (version 9.4; SAS Institute Inc., Cary, N.C.) and significant differences (P<0.05) were observed among treatments.

## COC(=O)N(OC)c1ccccc1COc1ccn(-c2ccc(Cl)cc2)n1 [Pyraclostrobin]
[1]
  Percent Disease Control, Confirmation: 97.1%
  Percent Disease Control, Primary screen: 96.2%

## Mancozeb
Mycosphaerella fijiensis
  Percent Disease Control: 83.7%
[2]
  Percent Disease Control: 52.9a %

## CC(C)(C)C(O)(CCc1ccc(Cl)cc1)Cn1cncn1 (centres unmarked) [Tebuconazole]
Podosphaera xanthii
  Percent Disease Control: 67.0%

## COCC(=O)N(c1c(C)cccc1C)[C@H](C)C(=O)OC [Mefenoxam]
Phytophthora infestans
  Percent Disease Control, Confirmation: 75.0%
  Percent Disease Control, Primary screen: 75.0%

## CO/C=C(/C(=O)OC)c1ccccc1Oc1cc(Oc2ccccc2C#N)ncn1 [Azoxystrobin]
Phakopsora pachyrhizi
  Percent Disease Control: 97.0%
